Test results: PMC5015074, “Enhancing Endosomal Escape for Intracellular Delivery of Macromolecular Biologic Therapeutics” (Scientific Reports, 2016)

Tests used:
[1] = system: GFPβ1-10 expressing H1299 cells
Experimental: (§2) Cell morphology was determined by FACS analysis of FSC and SSC. Gates were set manually for viable cells using untreated control cells as reference and the fraction of viable cells compared to non-viable cells was determined for each sample. Data are presented as the relative difference compared to non-treated control cells. Viable cells per sample were determined by measuring number of viable cells that were analyzed per second by FACS. Gates for viable cells were set manually using untreated control cells as reference. Data are presented as the relative difference compared to untreated control cells.

[2] = system: GFPβ1-10 expressing H1299 cells; experiment: live cell split-GFP fluorescence complementation transduction assay (FACS); assay type: cell-based, human; details: GFPβ1-10 H1299 cells
Experimental: (§1) All transduction experiments were performed in 48-well plates. An optimized protocol was established. First, 15,000 or 20,000 cells were plated in each well. Next day, the indicated peptides were pipetted into microcentrifuge tubes. Transduction buffer (60% OptiMEM and 40% PBS) was added to peptide (100 μl total volume), directly mixed by pipetting up and down five times and then immediately transferred to cells. […] All cells were trypsinized and collected in 250 μl OptiMEM without phenol red and analyzed by FACS (GFP, FSC/SSC). 4,000 viable cells were analyzed per sample. Data is presented as fold change in fluorescence compared to non-treated cells.

[3] = system: GFPβ1-10 expressing MDA-MB-231 breast carcinoma cells; experiment: split-GFP complementation transduction assay (FACS); assay type: cell-based, human
Experimental: as §1

H1299 G1-10 cells = experiment: macropinocytosis assay (70-kDa neutral dextran-Texas Red uptake, FACS); assay type: cell-based, human; details: 10 μM peptide, 70 min, 70-kDa neutral dextran-Texas Red 100 μg/mL, 37°, triplicate
Experimental: 3,000 H1299 G1-10 cells were plated in a 48-well plate and treated with 10 μM TAT-P6-GG, TAT-P6-GWWG or TAT-P6-GFWFG peptides for 70 min in the presence of 70-kDa neutral dextran-Texas Red (100 μg/mL; Invitrogen) at 37° in triplicate. Cells were washed, trypsinized and analyzed by FACS (>2,000 cells per sample).

[4] = system: GFPβ1-10 expressing HaCaT keratinocytes; experiment: split-GFP complementation transduction assay (FACS); assay type: cell-based, human; details: dose-dependent analysis by FACS, EED peptide compared to parental GFPβ11-(S-S)-TAT, triplicate samples
Experimental: as §1

[5] = system: GFPβ1-10 expressing MCF7 breast carcinoma cells; experiment: as above; assay type: cell-based, human; details: dose-dependent analysis by FACS, EED peptide compared to parental GFPβ11-(S-S)-TAT, triplicate samples
Experimental: as §1

[6] = system: GFPβ1-10 expressing MCF7 breast carcinoma cells
Experimental: as §2

[7] = system: GFPβ1-10 expressing MDA-MB-231 breast carcinoma cells
Experimental: as §2

[8] = system: GFPβ1-10 expressing HaCaT keratinocytes
Experimental: as §2

GFPβ11-(S-S)-TAT-P6-GWWWG [compound 9] was tested, and the “Cell Viability 15 uM” value [1] was 0.96, the “Cell Viability 30 uM” value [1] was 0.42 and the “Cell Viability 45 uM” value [1] was 0.18.
In the case of `CCN(CC)CCCC(C)Nc1ccnc2cc(Cl)ccc12` (centres unmarked) [Chloroquine, reference compound], the “increase in GFP fluorescence of GFPβ11-(S-S)-TAT treated cells on addition of Chloroquine” value ([2]; low concentration of GFPβ11-(S-S)-TAT peptide plus 100 μM Chloroquine) is reported as ~ 4 fold.
In the case of `CCN(c1nc(N)c(C(=O)NC(=N)N)nc1Cl)C(C)C` [EIPA, reference compound], the “effect of macropinocytosis inhibitor on GFP fluorescence from GFPβ11-TAT, in words” value ([3]; MDA-MB-231c#G3 pre-treated with 80 μM EIPA, transduced with 60 μM GFPβ11-TAT with 80 μM EIPA for 40 or 80 min, FACS, triplicate) is reported as “reduced GFP fluorescence to near background levels”.
In the case of GFPβ11-(S-S)-TAT-P6-GWGGWG [compound 8], the “enhancement of GFP fluorescence compared to the -GWWG motif, in words” value [2] is reported as “decreased the enhancement significantly”, the “Cell Viability 15 uM” value [1] is reported as 0.96 and the “Cell Viability 30 uM” value [1] is reported as 0.98. For the same molecule, the “Cell Viability 45 uM” value [1] was 0.97.
For “TAT-P6-GFWFG [TAT peptide with PEG6-GFWFG endosomal escape domain]”, the “stimulation of macropinocytosis, in words” value (H1299 G1-10 cells) was “stimulate macropinocytosis to a similar extent”.
GFPβ11-(S-S)-TAT-P6-GFWFG [compound 6] was tested, and the “GFP complementation fluorescence / endosomal escape, in words” value ([3]; MDA-MB-231, dose-dependent analysis by FACS, EED peptide compared to parental GFPβ11-(S-S)-TAT, triplicate samples) was “significantly enhanced endosomal escape”, the “GFP complementation fluorescence / endosomal escape, in words” value [4] was “significantly enhanced endosomal escape” and the “GFP complementation fluorescence / endosomal escape, in words” value [5] was “significantly enhanced endosomal escape”. The “cytotoxicity, in words” value [6] was “non-cytotoxic”, the “increase in GFP fluorescence compared to the parental GFPβ11-(S-S)-TAT peptide” value ([2]; stated in text for Fig. 4b-e) was “five-fold” and the “cytotoxicity, in words” value [7] was “non-cytotoxic”. The “cytotoxicity, in words” value [8] was “non-cytotoxic”, the “Cell Viability 15 uM” value [1] was 0.97 and the “Cell Viability 30 uM” value [1] was 0.97. For the same molecule, the “Cell Viability 45 uM” value [1] was 0.90.
